Numbered stars: 1 amine (or outer) side, 2 acyl side, 3 side chain; on linkers, the order of the positions; unused ones are H or OH. Bridge positions count the residues as written; N and C are the ends. Square brackets hold non-standard residues; d marks the D form. Peptide text beside a SMILES is read from it. Bip = N[C@@H](Cc1ccc(-c2ccccc2)cc1)C(=O)O; X50 = C[C@@H](C(=O)[*:2])N(CCCCCN)[*:1]; Cit = NC(=O)NCCC[C@H](N)C(=O)O; NMeA = CN[C@@H](C)C(=O)O; Orn = NCCC[C@H](N)C(=O)O; Dab = NCC[C@H](N)C(=O)O; Nva = CCC[C@H](N)C(=O)O
Molecular target: T1, PE-labeled human PD-L1-Ig binding to Jurkat cell line over-expressing human PD-1 (Jurkat-PD-1) (Homo sapiens, UniProt Q15116)
T1 construct: expressed in transfected cells; host or cells: Jurkat
Experiment: Jurkat-PD-1 Cell Binding High-Content Screening Assay (CBA): Method 1
Details: Jurkat-hPD-1 cells, PE-labeled PD-L1-Ig 20 nM final; read-out: Jurkat HPDL1 PD1 IC50 (uM) (Method 1)

T1 sequence (Q15116 25-288): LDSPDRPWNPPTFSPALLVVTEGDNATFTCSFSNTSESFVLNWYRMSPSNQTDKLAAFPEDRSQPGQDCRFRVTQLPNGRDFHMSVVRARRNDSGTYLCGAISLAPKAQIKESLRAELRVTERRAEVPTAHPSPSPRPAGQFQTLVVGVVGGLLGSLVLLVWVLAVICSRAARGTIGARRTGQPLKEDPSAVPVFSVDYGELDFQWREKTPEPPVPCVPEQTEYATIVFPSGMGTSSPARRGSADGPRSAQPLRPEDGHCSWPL

IC50 | Compound
0.05 µM | CC(C)C[C@@H]1NC(=O)[C@H](CCCNC(=N)N)NC(=O)[C@@H](CC(C)C)NC(=O)[C@H](C)N(C)C(=O)[C@H](CCCNC(N)=O)NC(=O)[C@H](Cc2ccc(-c3ccccc3)cc2)NC(=O)[C@H](C(C)C)NC(=O)[C@H](Cc2c[nH]c3ccccc23)NC(=O)[C@H](CC(=O)O)NC(=O)[C@H](Cc2ccc(O)cc2)NC(=O)[C@H](CC(N)=O)NC(=O)CSC[C@@H](C(=O)NCC(N)=O)NC(=O)[C@H](CO)NC(=O)[C@H](C(C)C)NC1=O [Compound 1246] ({CH2CO}-NYDWV[Bip][Cit][NMeA][dL]RLVSCG-NH2; thioether N-14)
0.06 µM | CC(C)C[C@@H]1NC(=O)[C@H](CCN)NC(=O)[C@@H](CC(C)C)NC(=O)[C@H](C)N(C)C(=O)[C@H](CCCNC(=N)N)NC(=O)[C@H](Cc2ccc(-c3ccccc3)cc2)NC(=O)[C@H](C(C)C)NC(=O)[C@H](Cc2c[nH]c3ccccc23)NC(=O)[C@H](CC(=O)O)NC(=O)[C@H](Cc2ccc(O)cc2)NC(=O)[C@H](CC(N)=O)NC(=O)CSC[C@@H](C(=O)NCC(N)=O)NC(=O)[C@H](CO)NC(=O)[C@H](C(C)C)NC1=O [Compound 1247] ({CH2CO}-NYDWV[Bip]R[NMeA][dL][Dab]LVSCG-NH2; thioether N-14)
0.07 µM | CC(C)C[C@@H]1NC(=O)[C@H](CCN)NC(=O)[C@@H](CC(C)C)NC(=O)[C@H](C)N(C)C(=O)[C@H](CCC(=O)O)NC(=O)[C@H](Cc2ccc(-c3ccccc3)cc2)NC(=O)[C@H](C(C)C)NC(=O)[C@H](Cc2c[nH]c3ccccc23)NC(=O)[C@H](CC(=O)O)NC(=O)[C@H](Cc2ccc(O)cc2)NC(=O)[C@H](CC(N)=O)NC(=O)CSC[C@@H](C(=O)N[C@@H](C)C(N)=O)NC(=O)[C@H](CO)NC(=O)[C@H](C(C)C)NC1=O [Compound 1248] ({CH2CO}-NYDWV[Bip]E[NMeA][dL][Dab]LVSCA-NH2; thioether N-14)
0.06 µM | CC(C)C[C@@H]1NC(=O)[C@H](CCN)NC(=O)[C@@H](CC(C)C)NC(=O)[C@H](C)N(C)C(=O)[C@H](CCCNC(=N)N)NC(=O)[C@H](Cc2ccc(-c3ccccc3)cc2)NC(=O)[C@H](C(C)C)NC(=O)[C@H](Cc2c[nH]c3ccccc23)NC(=O)[C@H](CC(=O)O)NC(=O)[C@H](Cc2ccc(O)cc2)NC(=O)[C@H](CC(N)=O)NC(=O)CSC[C@@H](C(=O)NCC(N)=O)NC(=O)[C@H]([C@@H](C)O)NC(=O)[C@H](C(C)C)NC1=O [Compound 1249] ({CH2CO}-NYDWV[Bip]R[NMeA][dL][Dab]LVTCG-NH2; thioether N-14)
0.07 µM | CC(C)C[C@@H]1NC(=O)[C@H](CCCNC(=N)N)NC(=O)[C@@H](CC(C)C)NC(=O)[C@H](C)N(C)C(=O)[C@H](CCC(=O)O)NC(=O)[C@H](Cc2ccc(-c3ccccc3)cc2)NC(=O)[C@H](C(C)C)NC(=O)[C@H](Cc2c[nH]c3ccccc23)NC(=O)[C@H](CC(=O)O)NC(=O)[C@H](Cc2ccc(O)cc2)NC(=O)[C@H](CC(N)=O)NC(=O)CSC[C@@H](C(=O)N[C@@H](C)C(N)=O)NC(=O)[C@H](CCCN)NC(=O)[C@H](C(C)C)NC1=O [Compound 1250] ({CH2CO}-NYDWV[Bip]E[NMeA][dL]RLV[Orn]CA-NH2; thioether N-14)
0.04 µM | CC(C)C[C@@H]1NC(=O)[C@H](CCCN)NC(=O)[C@@H](CC(C)C)NC(=O)[C@H](C)N(C)C(=O)[C@H](CCCN)NC(=O)[C@H](Cc2ccc(-c3ccccc3)cc2)NC(=O)[C@H](C(C)C)NC(=O)[C@H](Cc2c[nH]c3ccccc23)NC(=O)[C@H](CC(=O)O)NC(=O)[C@H](Cc2ccc(O)cc2)NC(=O)[C@H](CC(N)=O)NC(=O)CSC[C@@H](C(=O)N[C@@H](C)C(N)=O)NC(=O)[C@H](CO)NC(=O)[C@H](C(C)C)NC1=O [Compound 1251] ({CH2CO}-NYDWV[Bip][Orn][NMeA][dL][Orn]LVSCA-NH2; thioether N-14)
0.09 µM | CC(C)C[C@@H]1NC(=O)[C@H](CCCNC(=N)N)NC(=O)[C@@H](CC(C)C)NC(=O)[C@H](C)N(C)C(=O)[C@H](CCCNC(=N)N)NC(=O)[C@H](Cc2ccc(-c3ccccc3)cc2)NC(=O)[C@H](C(C)C)NC(=O)[C@H](Cc2c[nH]c3ccccc23)NC(=O)[C@H](CC(=O)O)NC(=O)[C@H](Cc2ccc(O)cc2)NC(=O)[C@H](CC(N)=O)NC(=O)CSC[C@@H](C(=O)N[C@@H](C)C(N)=O)NC(=O)[C@H](CCCN)NC(=O)[C@H](C(C)C)NC1=O [Compound 1252] ({CH2CO}-NYDWV[Bip]R[NMeA][dL]RLV[Orn]CA-NH2; thioether N-14)
0.03 µM | CC(C)C[C@@H]1NC(=O)[C@H](CCCNC(=N)N)NC(=O)[C@@H](CC(C)C)NC(=O)[C@H](C)N(C)C(=O)[C@H](CCCNC(=N)N)NC(=O)[C@H](Cc2ccc(-c3ccccc3)cc2)NC(=O)[C@H](C(C)C)NC(=O)[C@H](Cc2c[nH]c3ccccc23)NC(=O)[C@H](CC(=O)O)NC(=O)[C@H](Cc2ccc(O)cc2)NC(=O)[C@H](CC(N)=O)NC(=O)CSC[C@@H](C(=O)NCC(N)=O)NC(=O)[C@H](CO)NC(=O)[C@H](C(C)C)NC1=O [Compound 1253] ({CH2CO}-NYDWV[Bip]R[NMeA][dL]RLVSCG-NH2; thioether N-14)
0.03 µM | CC(C)C[C@@H]1NC(=O)[C@H](CCCNC(=N)N)NC(=O)[C@@H](CC(C)C)NC(=O)[C@H](C)N(C)C(=O)[C@H](CCC(=O)O)NC(=O)[C@H](Cc2ccc(-c3ccccc3)cc2)NC(=O)[C@H](C(C)C)NC(=O)[C@H](Cc2c[nH]c3ccccc23)NC(=O)[C@H](CC(=O)O)NC(=O)[C@H](Cc2ccc(O)cc2)NC(=O)[C@H](CC(N)=O)NC(=O)CSC[C@@H](C(=O)N[C@@H](C)C(N)=O)NC(=O)[C@H]([C@@H](C)O)NC(=O)[C@H](C(C)C)NC1=O [Compound 1254] ({CH2CO}-NYDWV[Bip]E[NMeA][dL]RLVTCA-NH2; thioether N-14)
0.03 µM | CC(C)C[C@@H]1NC(=O)[C@H](CCN)NC(=O)[C@@H](CC(C)C)NC(=O)[C@H](C)N(C)C(=O)[C@H](CCC(=O)O)NC(=O)[C@H](Cc2ccc(-c3ccccc3)cc2)NC(=O)[C@H](C(C)C)NC(=O)[C@H](Cc2c[nH]c3ccccc23)NC(=O)[C@H](CC(=O)O)NC(=O)[C@H](Cc2ccc(O)cc2)NC(=O)[C@H](CC(N)=O)NC(=O)CSC[C@@H](C(=O)N[C@@H](C)C(N)=O)NC(=O)[C@H]([C@@H](C)O)NC(=O)[C@H](C(C)C)NC1=O [Compound 1255] ({CH2CO}-NYDWV[Bip]E[NMeA][dL][Dab]LVTCA-NH2; thioether N-14)
0.06 µM | CC(C)C[C@@H]1NC(=O)[C@H](CCCNC(=N)N)NC(=O)[C@@H](CC(C)C)NC(=O)[C@H](C)N(C)C(=O)[C@H](CCC(=O)O)NC(=O)[C@H](Cc2ccc(-c3ccccc3)cc2)NC(=O)[C@H](C(C)C)NC(=O)[C@H](Cc2c[nH]c3ccccc23)NC(=O)[C@H](CC(=O)O)NC(=O)[C@H](Cc2ccc(O)cc2)NC(=O)[C@H](CC(N)=O)NC(=O)CSC[C@@H](C(=O)N[C@@H](C)C(N)=O)NC(=O)[C@H](CO)NC(=O)[C@H](C(C)C)NC1=O [Compound 1256] ({CH2CO}-NYDWV[Bip]E[NMeA][dL]RLVSCA-NH2; thioether N-14)
0.13 µM | CC(C)C[C@@H]1NC(=O)[C@H](CCN)NC(=O)[C@@H](CC(C)C)NC(=O)[C@H](C)N(CCCCCN)C(=O)[C@H](CCCNC(=N)N)NC(=O)[C@H](Cc2ccc(-c3ccccc3)cc2)NC(=O)[C@H](C(C)C)NC(=O)[C@H](Cc2c[nH]c3ccccc23)NC(=O)[C@H](CC(=O)O)NC(=O)[C@H](Cc2ccc(O)cc2)NC(=O)[C@H](CC(N)=O)NC(=O)CSC[C@@H](C(=O)N[C@@H](C)C(N)=O)NC(=O)[C@H]([C@@H](C)O)NC(=O)[C@H](C(C)C)NC1=O [Compound 1257] ({CH2CO}-NYDWV[Bip]R[X50][dL][Dab]LVTCA-NH2; thioether N-14)
0.04 µM | CCC[C@@H]1NC(=O)[C@H](Cc2ccc(-c3ccccc3)cc2)NC(=O)[C@H](C(C)C)NC(=O)[C@H](Cc2c[nH]c3ccccc23)NC(=O)[C@H](CC(=O)O)NC(=O)[C@H](Cc2ccc(O)cc2)NC(=O)[C@H](CC(N)=O)NC(=O)CSC[C@@H](C(=O)N[C@@H](C)C(N)=O)NC(=O)[C@H]([C@@H](C)O)NC(=O)[C@H](C(C)C)NC(=O)[C@H](CC(C)C)NC(=O)[C@H](CCN)NC(=O)[C@@H](CC(C)C)NC(=O)[C@H](C)N(C)C1=O [Compound 1258] ({CH2CO}-NYDWV[Bip][Nva][NMeA][dL][Dab]LVTCA-NH2; thioether N-14)
0.11 µM | CC(C)C[C@@H]1NC(=O)[C@H](CCN)NC(=O)[C@@H](CC(C)C)NC(=O)[C@H](C)N(C)C(=O)[C@H](CC(N)=O)NC(=O)[C@H](Cc2ccc(-c3ccccc3)cc2)NC(=O)[C@H](C(C)C)NC(=O)[C@H](Cc2c[nH]c3ccccc23)NC(=O)[C@H](CC(=O)O)NC(=O)[C@H](Cc2ccc(O)cc2)NC(=O)[C@H](CC(N)=O)NC(=O)CSC[C@@H](C(=O)N[C@@H](C)C(N)=O)NC(=O)[C@H]([C@@H](C)O)NC(=O)[C@H](C(C)C)NC1=O [Compound 1259] ({CH2CO}-NYDWV[Bip]N[NMeA][dL][Dab]LVTCA-NH2; thioether N-14)
0.17 µM | CC(C)C[C@@H]1NC(=O)[C@H](CCN)NC(=O)[C@@H](CC(C)C)NC(=O)[C@H](C)N(C)C(=O)[C@H](CC(=O)O)NC(=O)[C@H](Cc2ccc(-c3ccccc3)cc2)NC(=O)[C@H](C(C)C)NC(=O)[C@H](Cc2c[nH]c3ccccc23)NC(=O)[C@H](CC(=O)O)NC(=O)[C@H](Cc2ccc(O)cc2)NC(=O)[C@H](CC(N)=O)NC(=O)CSC[C@@H](C(=O)N[C@@H](C)C(N)=O)NC(=O)[C@H]([C@@H](C)O)NC(=O)[C@H](C(C)C)NC1=O [Compound 1260] ({CH2CO}-NYDWV[Bip]D[NMeA][dL][Dab]LVTCA-NH2; thioether N-14)
0.08 µM | CC(C)C[C@@H]1NC(=O)[C@H](CCN)NC(=O)[C@@H](CC(C)C)NC(=O)[C@H](C)N(C)C(=O)[C@H](CO)NC(=O)[C@H](Cc2ccc(-c3ccccc3)cc2)NC(=O)[C@H](C(C)C)NC(=O)[C@H](Cc2c[nH]c3ccccc23)NC(=O)[C@H](CC(=O)O)NC(=O)[C@H](Cc2ccc(O)cc2)NC(=O)[C@H](CC(N)=O)NC(=O)CSC[C@@H](C(=O)N[C@@H](C)C(N)=O)NC(=O)[C@H]([C@@H](C)O)NC(=O)[C@H](C(C)C)NC1=O [Compound 1261] ({CH2CO}-NYDWV[Bip]S[NMeA][dL][Dab]LVTCA-NH2; thioether N-14)

From patent US20240409585A1, “MACROCYCLIC IMMUNOMODULATORS” (priority 2021, published 2024)
